Experimental data: PubChem BioAssay AID248 (DTP/NCI, 2004)
Toxic doses and inconclusive results are not listed. No stated cut-off is given here; in the data, active means T/C of 150% or more; inactive means T/C below 125%.

Tested on: L1210 leukemia ip in BDF1 mice, survival T/C
Experiment: NCI In Vivo Anticancer Drug Screen. Data for tumor model L1210 Leukemia (intraperitoneal) in B6D2F1 (BDF1) mice
Conditions: endpoint: mean survival time, higher = longer survival
Summary of the method: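 Transplanted-tumor mice were given test agent; controls received vehicle only. Survival readings from the two groups were divided (treated over control).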

[1] = dose: 100.0 mg/kg/injection, schedule: Q01DX001 (ip), vehicle: carboxymethylcellulose (CMC)
[2] = dose: 200.0 mg/kg/injection, schedule: Q01DX001 (ip), vehicle: carboxymethylcellulose (CMC)
[3] = dose: 400.0 mg/kg/injection, schedule: Q01DX001 (ip), vehicle: carboxymethylcellulose (CMC)
[4] = dose: 100.0 mg/kg/injection, schedule: Q01DX009 (ip), vehicle: Klucel (hydroxypropylcellulose) (HPC)
[5] = dose: 200.0 mg/kg/injection, schedule: Q01DX009 (ip), vehicle: Klucel (hydroxypropylcellulose) (HPC)
[6] = dose: 400.0 mg/kg/injection, schedule: Q01DX009 (ip), vehicle: Klucel (hydroxypropylcellulose) (HPC)
[7] = dose: 100.0 mg/kg/injection, schedule: Q01DX001 (ip), vehicle: Klucel (hydroxypropylcellulose) (HPC)
[8] = dose: 100.0 mg/kg/injection, schedule: Q04DX003 (ip), vehicle: Klucel (hydroxypropylcellulose) (HPC)
[9] = dose: 200.0 mg/kg/injection, schedule: Q01DX001 (ip), vehicle: Klucel (hydroxypropylcellulose) (HPC)
[10] = dose: 200.0 mg/kg/injection, schedule: Q04DX003 (ip), vehicle: Klucel (hydroxypropylcellulose) (HPC)
[11] = dose: 400.0 mg/kg/injection, schedule: Q01DX001 (ip), vehicle: Klucel (hydroxypropylcellulose) (HPC)
[12] = dose: 400.0 mg/kg/injection, schedule: Q04DX003 (ip), vehicle: Klucel (hydroxypropylcellulose) (HPC)
[13] = dose: 100.0 mg/kg/injection, schedule: Q04DX002 (ip), vehicle: Klucel (hydroxypropylcellulose) (HPC)
[14] = dose: 200.0 mg/kg/injection, schedule: Q04DX002 (ip), vehicle: Klucel (hydroxypropylcellulose) (HPC)
[15] = dose: 400.0 mg/kg/injection, schedule: Q04DX002 (ip), vehicle: Klucel (hydroxypropylcellulose) (HPC)
[16] = dose: 50.0 mg/kg/injection, schedule: Q04DX002 (ip), vehicle: saline
[17] = dose: 100.0 mg/kg/injection, schedule: Q04DX002 (ip), vehicle: saline with Tween-80

Measured: T/C

COc1cc2[nH]c(=O)c3cccn3c(=O)c2cc1OC
inactive: dose: 50.0 mg/kg/injection, schedule: Q04DX002 (ip), vehicle: other 102 % of control | dose: 100.0 mg/kg/injection, schedule: Q04DX002 (ip), vehicle: other 105 % of control | dose: 200.0 mg/kg/injection, schedule: Q04DX002 (ip), vehicle: other 94 % of control

S=C(N/N=C1\C=Cc2ccccc2C1)N/N=C1\C=Cc2ccccc2C1
inactive: dose: 100.0 mg/kg/injection, schedule: Q01DX001 (ip), vehicle: saline 92 % of control | dose: 200.0 mg/kg/injection, schedule: Q01DX001 (ip), vehicle: saline 95 % of control | dose: 400.0 mg/kg/injection, schedule: Q01DX001 (ip), vehicle: saline 95 % of control

CSCCC1NC(=O)C(/C(C)=N\NC(N)=O)=C1O (configuration not stated)
inactive: dose: 50.0 mg/kg/injection, schedule: Q01DX001 (ip), vehicle: carboxymethylcellulose (CMC) 101 % of control | [1] 103 % of control | [2] 103 % of control | [3] 101 % of control

CCOC(=O)c1ccc(NC(=S)N2CCOCC2)cc1
inactive: [4] 93 % of control | [5] 101 % of control | [6] 93 % of control

CCOC(=O)n1cnc2c(Cl)ncnc21
inactive: dose: 100.0 mg/kg/injection, schedule: Q01DX001 (ip), vehicle: other 109 % of control | dose: 200.0 mg/kg/injection, schedule: Q01DX001 (ip), vehicle: other 102 % of control | dose: 400.0 mg/kg/injection, schedule: Q01DX001 (ip), vehicle: other 110 % of control

CC1(C)OC2COC3(COC(C)(C)O3)C(OS(C)(=O)=O)C2O1 (configuration not stated)
inactive: dose: 100.0 mg/kg/injection, schedule: Q04DX003 (ip), vehicle: saline with Tween-80 92 % of control | dose: 200.0 mg/kg/injection, schedule: Q04DX003 (ip), vehicle: saline with Tween-80 95 % of control | dose: 400.0 mg/kg/injection, schedule: Q04DX003 (ip), vehicle: saline with Tween-80 95 % of control

O=S(=O)(Cc1ccccc1)Nc1cccc(S(=O)(=O)OCc2ccccc2)c1
inactive: [7] 102 % of control | [4] 104 % of control | [8] 100 % of control | [9] 98 % of control | [5] 95 % of control | [10] 94 % of control | [11] 106 % of control | [6] 97 % of control | [12] 92 % of control

Cc1ccc(C)c(NC(=O)c2ccc([N+](=O)[O-])cc2)c1
inactive: [13] 100 % of control | [14] 89 % of control | [15] 92 % of control

C/C(=N/O)c1ccc(O)cc1
inactive: dose: 100.0 mg/kg/injection, schedule: Q01DX009 (ip), vehicle: saline with Tween-80 103 % of control | dose: 200.0 mg/kg/injection, schedule: Q01DX009 (ip), vehicle: saline with Tween-80 96 % of control | dose: 400.0 mg/kg/injection, schedule: Q01DX009 (ip), vehicle: saline with Tween-80 97 % of control

N=c1c2c(N)nc(N)nc2c2ccccc2n1O
inactive: [16] 97 % of control | dose: 100.0 mg/kg/injection, schedule: Q04DX002 (ip), vehicle: saline 104 % of control | dose: 200.0 mg/kg/injection, schedule: Q04DX002 (ip), vehicle: saline 101 % of control

O=Nc1ccc(O)cc1I
inactive: [13] 100 % of control | [14] 97 % of control | [15] 93 % of control

CCOC(=O)n1cccc(C)c1=N
inactive: [1] 102 % of control | [2] 100 % of control | [3] 102 % of control

CCC(=O)Nc1cc(C(C)C)ccc1C
inactive: [4] 107 % of control | [8] 97 % of control | [5] 110 % of control | [10] 97 % of control | [6] 103 % of control | [12] 104 % of control

Cc1ccc(CS)cc1
inactive: [4] 101 % of control | [8] 97 % of control | [5] 93 % of control | [10] 97 % of control | [12] 92 % of control

CC1C(O)C(O)CC2COCC21 (configuration not stated)
inactive: dose: 100.0 mg/kg/injection, schedule: Q01DX001 (ip), vehicle: saline sonified 91 % of control | dose: 200.0 mg/kg/injection, schedule: Q01DX001 (ip), vehicle: saline sonified 107 % of control | dose: 400.0 mg/kg/injection, schedule: Q01DX001 (ip), vehicle: saline sonified 113 % of control

Cc1ccc(NC(=O)OCCN2CCNC2=S)c([N+](=O)[O-])c1
inactive: dose: 50.0 mg/kg/injection, schedule: Q01DX009 (ip), vehicle: Klucel (hydroxypropylcellulose) (HPC) 95 % of control | [4] 87 % of control | [8] 93 % of control | [5] 91 % of control | [10] 91 % of control | [12] 96 % of control

O=[N+]([O-])c1ccc(C=Nc2cccc3ncccc23)s1
inactive: [8] 95 % of control | [10] 93 % of control

O=C1C(C(Cl)c2ccccc2)SC(c2ccccc2)N1c1ccccc1 (configuration not stated)
inactive: [4] 95 % of control | [8] 102 % of control | [5] 95 % of control | [10] 89 % of control | [6] 95 % of control | [12] 96 % of control

CCN(CC)S(=O)(=O)CC
inactive: [17] 99 % of control | dose: 200.0 mg/kg/injection, schedule: Q04DX002 (ip), vehicle: saline with Tween-80 96 % of control | dose: 400.0 mg/kg/injection, schedule: Q04DX002 (ip), vehicle: saline with Tween-80 92 % of control

O=C1c2ccccc2C(=O)N1c1ncc2ccccc2n1
inactive: dose: 100.0 mg/kg/injection, schedule: Q01DX001 (ip), vehicle: saline with Tween-80 101 % of control | dose: 200.0 mg/kg/injection, schedule: Q01DX001 (ip), vehicle: saline with Tween-80 92 % of control | dose: 400.0 mg/kg/injection, schedule: Q01DX001 (ip), vehicle: saline with Tween-80 95 % of control

CC1(C)CC(=NNC(N)=S)CC(C)(C)N1O
inactive: dose: 25.0 mg/kg/injection, schedule: Q04DX002 (ip), vehicle: saline 102 % of control | dose: 50.0 mg/kg/injection, schedule: Q04DX002 (ip), vehicle: saline with Tween-80 93 % of control | [16] 94 % of control | [17] 101 % of control

CCCCCCCCCCCCCCCC(=O)c1ccccc1
inactive: [7] 106 % of control | [9] 103 % of control | [11] 88 % of control

COc1ccc(Cl)cc1NC(=O)Oc1ccc(F)cc1
inactive: [4] 87 % of control | [5] 97 % of control | [6] 87 % of control
